Assay results reported in PubChem BioAssay (NCI).
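Results reflect a 48-hour exposure of cells in 96-well plates to compound at five concentrations. Definition used: TGI = concentration required for complete inhibition of growth.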

How the values were obtained:
Experiment in all cases: growth of human tumour cells (NCI), 48 h
KM12 colon = system: KM12 colon
CCRF-CEM leukemia = system: CCRF-CEM leukemia
OVCAR-5 ovarian = system: OVCAR-5 ovarian
PC-3 prostate = system: PC-3 prostate
SNB-19 CNS = system: SNB-19 CNS
HCT-15 colon = system: HCT-15 colon
HOP-62 NSCLC = system: HOP-62 NSCLC
SK-MEL-28 melanoma = system: SK-MEL-28 melanoma
MDA-MB-435 = system: MDA-MB-435
BT-549 breast = system: BT-549 breast
EKVX NSCLC = system: EKVX NSCLC
MOLT-4 leukemia = system: MOLT-4 leukemia
HCC-2998 colon = system: HCC-2998 colon
OVCAR-8 ovarian = system: OVCAR-8 ovarian
MDA-MB-231 breast = system: MDA-MB-231 breast
IGROV1 ovarian = system: IGROV1 ovarian
HS 578T breast = system: HS 578T breast
U251 CNS = system: U251 CNS
NCI-H226 lung = system: NCI-H226 lung
HCT-116 colon = system: HCT-116 colon
HT29 colon = system: HT29 colon
RPMI-8226 leukemia = system: RPMI-8226 leukemia
SNB-75 CNS = system: SNB-75 CNS
COLO 205 colon = system: COLO 205 colon
SK-MEL-2 melanoma = system: SK-MEL-2 melanoma
TK-10 renal = system: TK-10 renal
NCI-H23 lung = system: NCI-H23 lung
MDA-N = system: MDA-N
SF-268 CNS = system: SF-268 CNS
ACHN renal = system: ACHN renal
786-0 renal = system: 786-0 renal
A549 NSCLC = system: A549 NSCLC
NCI-H460 lung = system: NCI-H460 lung
UACC-257 melanoma = system: UACC-257 melanoma
MALME-3M melanoma = system: MALME-3M melanoma
OVCAR-3 ovarian = system: OVCAR-3 ovarian
SK-MEL-5 melanoma = system: SK-MEL-5 melanoma
SW-620 colon = system: SW-620 colon
UO-31 renal = system: UO-31 renal
M14 melanoma = system: M14 melanoma
SR leukemia = system: SR leukemia
SF-295 CNS = system: SF-295 CNS
LOX IMVI melanoma = system: LOX IMVI melanoma
K-562 leukemia = system: K-562 leukemia
HL-60(TB) leukemia = system: HL-60(TB) leukemia
T-47D breast = system: T-47D breast
HOP-92 NSCLC = system: HOP-92 NSCLC
NCI/ADR-RES ovarian = system: NCI/ADR-RES ovarian
OVCAR-4 ovarian = system: OVCAR-4 ovarian
SN12C renal = system: SN12C renal
DU-145 prostate = system: DU-145 prostate
NCI-H522 lung = system: NCI-H522 lung
SF-539 CNS = system: SF-539 CNS
MCF7 breast = system: MCF7 breast
UACC-62 melanoma = system: UACC-62 melanoma
RXF 393 renal = system: RXF 393 renal
CAKI-1 renal = system: CAKI-1 renal
SK-OV-3 ovarian = system: SK-OV-3 ovarian
A498 renal = system: A498 renal

For `COc1cc(OC)c2c(c1)OC(c1ccccc1)CC2=O` (configuration not stated), the TGI (KM12 colon) was over 10 µM, the TGI (CCRF-CEM leukemia) was over 10 µM and the TGI (OVCAR-5 ovarian) was over 10 µM. It also gave a TGI (PC-3 prostate) of over 10 µM, a TGI (SNB-19 CNS) of over 10 µM and a TGI (HCT-15 colon) of over 10 µM. The TGI (HOP-62 NSCLC) was over 10 µM, the TGI (SK-MEL-28 melanoma) was over 10 µM and the TGI (MDA-MB-435) was over 10 µM. It also gave a TGI (BT-549 breast) of over 10 µM, a TGI (EKVX NSCLC) of over 10 µM and a TGI (MOLT-4 leukemia) of over 10 µM. It also gave a TGI (HCC-2998 colon) of over 10 µM, a TGI (OVCAR-8 ovarian) of over 10 µM and a TGI (MDA-MB-231 breast) of over 10 µM. The TGI (IGROV1 ovarian) was over 10 µM, the TGI (HS 578T breast) was over 10 µM and the TGI (U251 CNS) was over 10 µM. The TGI (NCI-H226 lung) was over 10 µM, the TGI (HCT-116 colon) was over 10 µM and the TGI (HT29 colon) was over 10 µM. The TGI (RPMI-8226 leukemia) was over 10 µM, the TGI (SNB-75 CNS) was over 10 µM and the TGI (COLO 205 colon) was over 10 µM. For the same compound, the TGI (SK-MEL-2 melanoma) was over 10 µM, the TGI (TK-10 renal) was over 10 µM and the TGI (NCI-H23 lung) was over 10 µM. For the same compound, the TGI (MDA-N) was over 10 µM, the TGI (SF-268 CNS) was over 10 µM and the TGI (ACHN renal) was over 10 µM. The TGI (786-0 renal) was over 10 µM, the TGI (A549 NSCLC) was over 10 µM and the TGI (NCI-H460 lung) was over 10 µM. It also gave a TGI (UACC-257 melanoma) of over 10 µM, a TGI (MALME-3M melanoma) of over 10 µM and a TGI (OVCAR-3 ovarian) of over 10 µM. For the same compound, the TGI (SK-MEL-5 melanoma) was over 10 µM, the TGI (SW-620 colon) was over 10 µM and the TGI (UO-31 renal) was over 10 µM. It also gave a TGI (M14 melanoma) of over 10 µM, a TGI (SR leukemia) of over 10 µM and a TGI (SF-295 CNS) of over 10 µM. The TGI (LOX IMVI melanoma) was over 10 µM, the TGI (K-562 leukemia) was over 10 µM and the TGI (HL-60(TB) leukemia) was over 10 µM. The TGI (T-47D breast) was over 10 µM, the TGI (HOP-92 NSCLC) was over 10 µM and the TGI (NCI/ADR-RES ovarian) was over 10 µM. It also gave a TGI (OVCAR-4 ovarian) of over 10 µM, a TGI (SN12C renal) of over 10 µM and a TGI (DU-145 prostate) of over 10 µM. For the same compound, the TGI (NCI-H522 lung) was over 10 µM, the TGI (SF-539 CNS) was over 10 µM and the TGI (MCF7 breast) was over 10 µM. The TGI (UACC-62 melanoma) was over 10 µM, the TGI (RXF 393 renal) was over 10 µM and the TGI (CAKI-1 renal) was over 10 µM. The TGI (SK-OV-3 ovarian) was over 10 µM.
`COc1ccc(N=N/C(=N/NC(=O)c2ccc(C)cc2)c2ccc(N(CCC#N)CCC#N)cc2OC)cc1` showed a TGI (KM12 colon) of over 100 µM, a TGI (OVCAR-5 ovarian) of over 100 µM and a TGI (PC-3 prostate) of over 100 µM. It also gave a TGI (SNB-19 CNS) of over 100 µM, a TGI (HCT-15 colon) of over 100 µM and a TGI (HOP-62 NSCLC) of over 100 µM. The TGI (SK-MEL-28 melanoma) was over 100 µM, the TGI (MDA-MB-435) was over 100 µM and the TGI (BT-549 breast) was over 100 µM. For the same compound, the TGI (EKVX NSCLC) was over 100 µM, the TGI (MOLT-4 leukemia) was over 100 µM and the TGI (A498 renal) was over 100 µM. The TGI (HCC-2998 colon) was over 100 µM, the TGI (OVCAR-8 ovarian) was over 100 µM and the TGI (MDA-MB-231 breast) was over 100 µM. The TGI (IGROV1 ovarian) was over 100 µM, the TGI (HS 578T breast) was over 100 µM and the TGI (U251 CNS) was over 100 µM. The TGI (NCI-H226 lung) was over 100 µM, the TGI (HCT-116 colon) was over 100 µM and the TGI (HT29 colon) was over 100 µM. It also gave a TGI (COLO 205 colon) of over 100 µM, a TGI (SK-MEL-2 melanoma) of over 100 µM and a TGI (TK-10 renal) of over 100 µM. The TGI (NCI-H23 lung) was over 100 µM, the TGI (MDA-N) was over 100 µM and the TGI (SF-268 CNS) was over 100 µM. For the same compound, the TGI (ACHN renal) was over 100 µM, the TGI (786-0 renal) was over 100 µM and the TGI (A549 NSCLC) was over 100 µM. It also gave a TGI (NCI-H460 lung) of over 100 µM, a TGI (UACC-257 melanoma) of over 100 µM and a TGI (MALME-3M melanoma) of over 100 µM. For the same compound, the TGI (OVCAR-3 ovarian) was over 100 µM, the TGI (SK-MEL-5 melanoma) was over 100 µM and the TGI (SW-620 colon) was over 100 µM. It also gave a TGI (UO-31 renal) of over 100 µM, a TGI (M14 melanoma) of over 100 µM and a TGI (SR leukemia) of over 100 µM. The TGI (SF-295 CNS) was over 100 µM, the TGI (LOX IMVI melanoma) was over 100 µM and the TGI (K-562 leukemia) was over 100 µM. For the same compound, the TGI (T-47D breast) was over 100 µM, the TGI (HOP-92 NSCLC) was over 100 µM and the TGI (NCI/ADR-RES ovarian) was over 100 µM. The TGI (OVCAR-4 ovarian) was over 100 µM, the TGI (SN12C renal) was over 100 µM and the TGI (DU-145 prostate) was over 100 µM. The TGI (NCI-H522 lung) was over 100 µM, the TGI (MCF7 breast) was over 100 µM and the TGI (UACC-62 melanoma) was over 100 µM. For the same compound, the TGI (RXF 393 renal) was over 100 µM, the TGI (CAKI-1 renal) was over 100 µM and the TGI (SK-OV-3 ovarian) was over 100 µM.
